Source: PubChem BioAssay AID276 (DTP/NCI, 2004)
Several values for one entry are separate records, joined by “and”; a condition that tells them apart may be missing. Equal entries are not always repeated. Toxic doses and inconclusive results are not listed.

Test system: B6C3F1 mice, Lewis lung carcinoma iv, survival T/C
Test: NCI In Vivo Anticancer Drug Screen. Data for tumor model Lewis Lung Carcinoma (intravenous) in B6C3F1 mice
Conditions: endpoint: median survival time, schedule: Q01DX009 (ip), higher = longer survival
How it was run: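 Mice carrying transplanted tumors received test compound; survival in the treated group was divided by that of the vehicle-treated control group to give the T/C value.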

[1] = dose: 25.0 mg/kg/injection, vehicle: saline
[2] = dose: 50.0 mg/kg/injection, vehicle: saline
[3] = dose: 100.0 mg/kg/injection, vehicle: saline
[4] = dose: 200.0 mg/kg/injection, vehicle: saline
[5] = dose: 400.0 mg/kg/injection, vehicle: saline
[6] = dose: 25.0 mg/kg/injection, vehicle: Klucel (hydroxypropylcellulose) (HPC)
[7] = dose: 1.0 mg/kg/injection, vehicle: saline with Tween-80
[8] = dose: 2.0 mg/kg/injection, vehicle: saline with Tween-80
[9] = dose: 4.0 mg/kg/injection, vehicle: saline with Tween-80
[10] = dose: 25.0 mg/kg/injection, vehicle: water
[11] = dose: 50.0 mg/kg/injection, vehicle: water

For `CC(=O)Oc1c(C)[nH]ccc1=O`, the T/C [1] was 97 % of control, the T/C [2] was 96 % of control and the T/C [3] was 96 % of control. For the same molecule, the T/C [4] was 103 % of control and the T/C [5] was 114 % of control.
`N#C[Se-].c1ccc([Te+](c2ccccc2)c2ccccc2)cc1` was tested, and the T/C (dose: 1.56 mg/kg/injection, vehicle: Klucel (hydroxypropylcellulose) (HPC)) was 97 % of control, the T/C (dose: 3.12 mg/kg/injection, vehicle: Klucel (hydroxypropylcellulose) (HPC)) was 97 % of control and the T/C (dose: 6.25 mg/kg/injection, vehicle: Klucel (hydroxypropylcellulose) (HPC)) was 97 % of control. The T/C (dose: 12.5 mg/kg/injection, vehicle: Klucel (hydroxypropylcellulose) (HPC)) was 100 % of control and the T/C [6] was 86 % of control.
For `COC1=C2C[C@@H](C)C[C@@H](OC)[C@@H](O)[C@H](C)/C=C(\C)[C@@H](OC(N)=O)[C@H](OC)/C=C\C=C(/C)C(=O)NC(=CC1=O)C2=O`, the T/C (dose: 0.12 mg/kg/injection, vehicle: saline with Tween-80) was 96 % of control, the T/C (dose: 0.13 mg/kg/injection, vehicle: saline with Tween-80) was 109 % of control and the T/C (dose: 0.25 mg/kg/injection, vehicle: saline with Tween-80) was 96 % of control and 110 % of control. The T/C (dose: 0.5 mg/kg/injection, vehicle: saline with Tween-80) was 101 % of control and 108 % of control, the T/C [7] was 101 % of control and 106 % of control and the T/C [8] was 100 % of control and 106 % of control. For the same molecule, the T/C [9] was 102 % of control.
`CN(C)C(=O)SC1=C(c2c(Cl)cccc2Cl)C(=O)c2ccccc21` was tested, and the T/C [6] was 102 % of control, the T/C (dose: 50.0 mg/kg/injection, vehicle: Klucel (hydroxypropylcellulose) (HPC)) was 110 % of control and the T/C (dose: 100.0 mg/kg/injection, vehicle: Klucel (hydroxypropylcellulose) (HPC)) was 105 % of control. The T/C (dose: 200.0 mg/kg/injection, vehicle: Klucel (hydroxypropylcellulose) (HPC)) was 108 % of control.
`NC(Cc1ccc(N(CCCl)CCCl)cc1)C(=O)O` (stereo not drawn) was tested, and the T/C [7] was 98 % of control, the T/C [8] was 100 % of control and the T/C [9] was 104 % of control. For the same molecule, the T/C (dose: 16.0 mg/kg/injection, vehicle: saline with Tween-80) was 101 % of control.
In the case of `NC1=NC(=O)N2CC12` (stereo not drawn), the T/C (dose: 12.5 mg/kg/injection, vehicle: saline) is reported as 110 % of control, the T/C [1] is reported as 110 % of control and the T/C [3] is reported as 110 % of control. For the same molecule, the T/C [4] was 109 % of control.
With `COCCCNC1=C(C#N)C(=O)NC(c2cccc([N+](=O)[O-])c2)S1` (stereo not drawn) the T/C (dose: 12.5 mg/kg/injection, vehicle: saline with Tween-80) was 111 % of control, the T/C (dose: 25.0 mg/kg/injection, vehicle: saline with Tween-80) was 93 % of control and the T/C (dose: 50.0 mg/kg/injection, vehicle: saline with Tween-80) was 96 % of control. For the same molecule, the T/C (dose: 100.0 mg/kg/injection, vehicle: saline with Tween-80) was 104 % of control, the T/C (dose: 200.0 mg/kg/injection, vehicle: saline with Tween-80) was 93 % of control and the T/C (dose: 400.0 mg/kg/injection, vehicle: saline with Tween-80) was 98 % of control.
With `NC(CCC(=O)NC(CS)C(=O)NCC(=O)O)C(=O)O` (stereo not drawn) the T/C [2] was 100 % of control, the T/C [3] was 101 % of control and the T/C [4] was 95 % of control. For the same molecule, the T/C [5] was 103 % of control.
In the case of `Cc1cc(NCCN(C(C)C)C(C)C)nc(/N=C(\N)Nc2ccc(Cl)c(C(F)(F)F)c2)n1`, the T/C (dose: 1.25 mg/kg/injection, vehicle: Klucel (hydroxypropylcellulose) (HPC)) is reported as 93 % of control and 95 % of control, the T/C (dose: 2.5 mg/kg/injection, vehicle: Klucel (hydroxypropylcellulose) (HPC)) is reported as 95 % of control and 100 % of control and the T/C (dose: 5.0 mg/kg/injection, vehicle: Klucel (hydroxypropylcellulose) (HPC)) is reported as 94 % of control and 96 % of control. The T/C (dose: 10.0 mg/kg/injection, vehicle: Klucel (hydroxypropylcellulose) (HPC)) was 97 % of control and 117 % of control and the T/C (dose: 20.0 mg/kg/injection, vehicle: Klucel (hydroxypropylcellulose) (HPC)) was 94 % of control and 112 % of control.
In the case of `CC(C)[C@](O)(C(=O)OCC1=CCN2CC[C@@H](O)[C@@H]12)[C@H](C)O`, the T/C [10] is reported as 100 % of control, the T/C [11] is reported as 97 % of control and the T/C (dose: 100.0 mg/kg/injection, vehicle: water) is reported as 100 % of control. For the same molecule, the T/C (dose: 200.0 mg/kg/injection, vehicle: water) was 109 % of control and the T/C (dose: 400.0 mg/kg/injection, vehicle: water) was 102 % of control.
With `CC(=O)CC(=O)CCC(=O)O` the T/C [1] was 98 % of control, the T/C [2] was 103 % of control and the T/C [3] was 102 % of control. The T/C [4] was 105 % of control.
With `NC(=O)c1csc(C2O[C@@H](COP(=O)(O)OP(=O)(O)OC[C@H]3OC(n4cnc5c(N)ncnc54)[C@H](O)[C@@H]3O)[C@H](O)[C@@H]2O)n1` (stereo partly drawn) the T/C (dose: 3.12 mg/kg/injection, vehicle: water) was 101 % of control, the T/C (dose: 6.25 mg/kg/injection, vehicle: water) was 98 % of control and the T/C (dose: 12.5 mg/kg/injection, vehicle: water) was 104 % of control. For the same molecule, the T/C [10] was 120 % of control and the T/C [11] was 209 % of control.
